Literature values as cited in patent US8653026B2, “Treatment of type 2 diabetes with FTY720” (Diapin Therapeutics LLC, priority 2011, dated 2014).

Tests used:
Conditions in all cases: literature reference (25); cited from earlier work
S1P3 = S1P3 (Homo sapiens, UniProt Q99500)
S1P5 = S1P5 (Homo sapiens, UniProt Q9H228)
S1P1 = S1P1 (Homo sapiens, UniProt P21453)
S1P4 = target: T1, S1P4 (Homo sapiens, UniProt O95977)
T1 sequence (O95977 1-384): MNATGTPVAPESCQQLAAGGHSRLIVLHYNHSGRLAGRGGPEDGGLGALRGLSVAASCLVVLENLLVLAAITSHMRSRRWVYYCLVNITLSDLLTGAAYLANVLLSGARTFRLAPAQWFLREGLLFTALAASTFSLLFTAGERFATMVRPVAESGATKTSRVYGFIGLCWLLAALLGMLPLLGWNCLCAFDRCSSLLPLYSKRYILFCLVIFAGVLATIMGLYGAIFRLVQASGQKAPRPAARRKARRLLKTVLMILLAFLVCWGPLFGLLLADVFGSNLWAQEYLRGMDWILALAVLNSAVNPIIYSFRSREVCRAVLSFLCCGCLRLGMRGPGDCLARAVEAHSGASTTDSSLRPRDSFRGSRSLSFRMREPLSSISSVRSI

S1P2 = S1P2 (Homo sapiens, UniProt O95136)
S1P2, sequence (O95136 whole entry, species assumed): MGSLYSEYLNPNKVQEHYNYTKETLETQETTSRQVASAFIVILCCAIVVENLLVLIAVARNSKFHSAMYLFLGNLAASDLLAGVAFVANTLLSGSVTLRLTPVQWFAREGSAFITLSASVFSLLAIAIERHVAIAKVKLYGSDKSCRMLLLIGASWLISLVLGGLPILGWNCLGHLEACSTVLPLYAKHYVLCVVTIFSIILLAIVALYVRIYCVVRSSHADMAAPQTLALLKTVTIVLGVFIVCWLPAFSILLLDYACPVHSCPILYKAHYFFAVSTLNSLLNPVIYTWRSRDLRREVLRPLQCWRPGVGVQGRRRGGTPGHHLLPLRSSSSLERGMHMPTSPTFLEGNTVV

S1P5, sequence (Q9H228 whole entry, species assumed): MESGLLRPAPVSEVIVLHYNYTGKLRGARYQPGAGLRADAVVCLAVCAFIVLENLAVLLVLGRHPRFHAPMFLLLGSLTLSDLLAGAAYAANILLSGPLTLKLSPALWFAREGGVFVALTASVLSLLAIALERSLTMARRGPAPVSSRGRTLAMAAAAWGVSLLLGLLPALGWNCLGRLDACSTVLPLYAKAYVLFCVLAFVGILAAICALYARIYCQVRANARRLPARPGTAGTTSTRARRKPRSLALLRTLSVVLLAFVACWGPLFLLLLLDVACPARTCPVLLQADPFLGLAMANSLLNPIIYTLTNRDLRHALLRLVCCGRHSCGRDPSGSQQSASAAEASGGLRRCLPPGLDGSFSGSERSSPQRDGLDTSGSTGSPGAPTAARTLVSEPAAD
S1P3, sequence (Q99500 whole entry, species assumed): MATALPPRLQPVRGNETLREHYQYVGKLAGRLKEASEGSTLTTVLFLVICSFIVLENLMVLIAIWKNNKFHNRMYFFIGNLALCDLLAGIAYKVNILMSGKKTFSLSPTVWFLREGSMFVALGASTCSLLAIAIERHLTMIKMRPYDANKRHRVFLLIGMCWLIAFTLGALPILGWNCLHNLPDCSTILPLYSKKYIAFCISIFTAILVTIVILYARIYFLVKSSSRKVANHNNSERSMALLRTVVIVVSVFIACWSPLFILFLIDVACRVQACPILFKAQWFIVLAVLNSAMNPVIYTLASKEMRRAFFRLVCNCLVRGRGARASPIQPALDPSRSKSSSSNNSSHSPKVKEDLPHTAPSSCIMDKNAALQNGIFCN
S1P1, sequence (P21453 whole entry, species assumed): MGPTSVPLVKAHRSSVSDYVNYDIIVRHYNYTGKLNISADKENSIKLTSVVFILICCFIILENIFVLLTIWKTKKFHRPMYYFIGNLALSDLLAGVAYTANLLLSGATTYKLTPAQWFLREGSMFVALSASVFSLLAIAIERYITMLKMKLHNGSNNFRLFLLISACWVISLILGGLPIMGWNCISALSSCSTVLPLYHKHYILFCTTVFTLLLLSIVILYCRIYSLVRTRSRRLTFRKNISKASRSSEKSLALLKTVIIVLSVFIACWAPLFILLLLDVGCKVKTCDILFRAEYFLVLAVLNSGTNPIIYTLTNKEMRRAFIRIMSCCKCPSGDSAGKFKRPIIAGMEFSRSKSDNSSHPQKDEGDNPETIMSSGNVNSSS

For CCCCCCCCc1ccc(CCC(N)(CO)COP(=O)(O)O)cc1 (centres unmarked) [FTY720-P, 2-amino-2-(hydroxymethyl)-4-(4-octylphenyl)butyl dihydrogen phosphate], the “binding to S1P3” value (S1P3) is listed as “binds”, the “binding to S1P5” value (S1P5) is listed as “binds” and the “binding to S1P1” value (S1P1) is listed as “binds”. For the same compound, the “binding to S1P4” value (S1P4) was “binds” and the “binding to S1P2” value (S1P2) was “but not S1P2”.
